# From patent US8889638B2, “Stimulus-triggered prodrugs” (The Regents of the University of California, priority 2010, dated 2014)
# “And” between values parts separate entries of the source, which are not always exact repeats. Equal values may be shown once.
# Assays:
# [1] = system: β-glucosidase; assay: β-glucosidase cleavage of glucose-protected compounds (UV-Vis, HPLC, Km); type: biochemical, almonds; settings: 37° C.
# Procedure: Absorption spectra of compounds 1-8 were taken on a Perkin-Elmer Lambda 25 UV-visible spectrophotometer. To a 1.0 mL solution at 0.05-0.06 mM concentration in HEPES buffer (50 mM, pH 7.5) was added β-glucosidase (16 U for compounds 2, 4, and 6, and 100 U for compound 8). Spectra were monitored over time either at room temperature for compounds 1-7 or at 37° C. for compound 8.
# To a 1.0 mL solution of 8 in HEPES buffer at 25 μM, 50 μM, 75 μM, 100 μM, and 200 μM was added 100 U of β-glucosidase. Spectra were monitored over 4 h at 37° C. The concentration of product formed, 1,2-HOPO-2 (7), was determined using the extinction coefficient for 7 calculated at 346 nm (4279±372 M-1 cm-1) and was plotted versus time (min). The initial velocity (ν) of each reaction was determined analyzing the linear slope of the first 50 min. The Km value was calculated from the Lineweaver-Burk plot (1/ν vs. 1/[8]) where −1/Km equals the x-intercept (FIG. 10).
# Analytical HPLC was performed on a HP Series 1050 system equipped with a Vydac® C18 reverse phase column (218 TP, 250×4.6 mm, 5 μm). […] Retention times of compounds 1-8 were determined under identical HPLC conditions prior to evaluation of glucose cleavage of the protected compounds. […]
# [2] = Acid stability in 0.1 M HCl (absorption spectra); type: physicochemical; settings: 0.1 M HCl over 24 h
# Procedure: To examine the stability of compound 8 towards acid hydrolysis, the absorption spectra of a 0.05 mM solution of 8 in a 0.1 M aqueous solution of HCl was collected. Spectra were collected at room temperature every hour for a 24 h time period. No change in the spectra was observed (FIG. 11).
smiles,measurement,setting,value
"O=C(NCc1ccc(-c2ccccc2)cc1)c1cccc(=O)n1O[C@@H]1O[C@H](CO)[C@@H](O)[C@H](O)[C@H]1O [Compound 8, N-(Biphenyl-4-ylmethyl)-6-oxo-1-(β-D-glucopyranosyloxy)-1,6-dihydropyridine-2-carboxamide]",Km,"[1]; 100 U β-glucosidase, Lineweaver-Burk plot",~210 µM and 210 µM
same,time required for complete conversion of 8 to 7,[1]; β-glucosidase,~4 h
same,cleavage under acidic conditions,[2],not cleaved
